In patent US11419806B2, “Prebiotic oral care methods using a saccharide” (Colgate-Palmolive Company, priority 2013, dated 2022):

Key:
Type in all cases: cell-based
[1] = tested on: Actinomyces naeslundii; assay: Phenotype microarray metabolic activity; settings: for metabolic activity: OD 492 nm divided by OD of control (control = 1): A naeslundii
Description: (§1) The extent of metabolic activity of the tested bacteria in the presence of the above-mentioned saccharides after 24 hours and 48 hours was investigated through a high throughput phenotype microarray system (PM) for microbial cells (Biolog Inc.). Each PM can contain up to 95 different biochemical compounds (e.g. saccharides) that may act as substrates for bacteria as well as one negative control, not containing the substrates. Microarray plates were used in which the different wells of each plate were pre-loaded (by the manufacturer, Biolog Inc.) with different saccharides to be tested. Each bacterial species was tested using a separate microarray plate. Thus, a single bacterial species was tested with a variety of saccharides on each particular plate. The microarrays are based on redox technology, using cell respiration as a universal reporter. Active cell respiration results in the reduction of a tetrazolium dye and in the formation of a strong color—for example, when using the tetrazolium dye “Biolog Redox Dye Mix D”, the color changes from transparent/colorless to purple when the dye is reduced. The observation of this color change indicates which of the substrates improve the metabolic activity and health of the cells.
(§2) Each bacterial species was collected from blood agar plates (incubated for 48 hours anaerobically at 37° C.) and transferred to an IF-0 Base inoculation fluid (Biolog Inc.), which is a nutritionally poor medium. The resulting cell suspension was adjusted to a transmittance of 42% (relative to the transmittance of the base inoculation fluid with no bacterial species present) at 492 nm using a BioRad SmartSpec 3000 Photometer (the adjustment being effected by adding either further inoculation fluid or further bacteria until the transmittance of 42% was achieved). A 1:5 dilution of this suspension was prepared by mixing 3 mL of the 42% transmittance cell suspension with 15 mL of an inoculation fluid (which inoculation fluid was formed by mixing 11.6 mL sterile water, 62.5 mL IF-0 base inoculation fluid and 0.9 mL of the tetrazolium dye “Biolog Redox Dye mix D”), resulting in a final cell density which was equal to 85% transmittance using a BioRad SmartSpec 3000 Photometer. For each of the saccharides tested, the microarray plate (obtained from the supplier (Biolog Inc.) with saccharides already present in the relevant wells in powder form) was directly inoculated with 100 μL/well of this 85% transmittance cell suspension.
(§3) All plates were incubated in an anaerobic atmosphere at 37° C. Color changes were measured spectrophotometrically at 492 nm (Thermo Scientific Multiskan Ascent) at 24 hrs and 48 hrs using the same plate at both time points. […] After 24 hrs and 48 hrs under continuous shaking in a Multiscan microplate reader, the optical density (OD) of the synthetic medium at 24 hours and 48 hours was measured (using the microplate reader) at a wavelength of 492 nm for each combination of bacterium/saccharide, and for each of their respective controls (i.e. which contained the particular bacterium but no saccharide).
(§4) The experiment was carried out three times for each combination of bacterium with saccharide, with each repeat being carried out on a different day (thus providing three biological replicas). The controls were also carried out three times, as above. The values shown are the average (mean) of the three single values obtained (as detailed above) for each combination of bacterium with saccharide, at 24 hrs and at 48 hrs.

[2] = tested on: Aggregatibacter actinomycetemcomitans; assay: Phenotype microarray metabolic activity; settings: A actinomycetemcomitans
Description: as §1, §2, §3, §4

[3] = tested on: Capnocytophaga sputigena; assay: Phenotype microarray metabolic activity; settings: C sputigena
Description: as §1, §2, §3, §4

[4] = tested on: Fusobacterium nucleatum; assay: Phenotype microarray metabolic activity; settings: F nucleatum
Description: as §1, §2, §3, §4

[5] = tested on: S sanguinis; assay: Phenotype microarray metabolic activity
Description: as §1, §2, §3, §4

[6] = tested on: Streptococcus gordonii; assay: Phenotype microarray metabolic activity; settings: S gordonii
Description: as §1, §2, §3, §4

[7] = tested on: Streptococcus mitis; assay: Phenotype microarray metabolic activity; settings: S mitis
Description: as §1, §2, §3, §4

[8] = tested on: Streptococcus sobrinus; assay: Phenotype microarray metabolic activity; settings: S sobrinus
Description: as §1, §2, §3, §4

[9] = tested on: beneficial oral bacteria and pathogenic oral bacteria; assay: Microarray screen, overall prebiotic assessment
Description: Substrates that were able to increase the metabolic activity of at least one of the above beneficial bacteria while not or only minimally increasing the growth of the pathogenic bacteria are considered to be prebiotic substrates.
as §1, §2, §3, §4
This value was selected in order to exclude low-stimulating metabolites and avoid false positive results.

[10] = tested on: beneficial oral bacteria and pathogenic oral bacteria; assay: Twenty-four hour optical density, overall prebiotic assessment
Text: Substrates that were able to increase the growth (or maximal growth density or extent of growth) of at least one of the above beneficial bacteria while not or only minimally increasing the growth (or maximal growth density) of the pathogenic bacteria are considered to be prebiotic compounds.
The extent of growth of the tested bacteria in response to selected saccharides (myo-inositol, D-lactitol, D-turanose and N-acetyl-D-mannosamine) was investigated by setting up growth curves in a nutritionally rich medium (brain heart infusion broth (BHI), Oxoid), over 24 hours. Late exponential growth phase liquid cultures were prepared by transferring the respective bacterium from blood agar plates to BHI and overnight incubation at 37° C. in an anaerobic atmosphere for A. viscosus, V. parvula, F. nucleatum, P. gingivalis, P. intermedia, T. forsythia, A. naeslundii, and C. sputigena, and in a 5% CO2 environment for S. salivarius, S. sanguinis, S. mitis, A. actinomycetemcomitans, S. mutans, S. sobrinus and S. gordonii. […]
For each combination of bacterium/saccharide, and for each of their respective controls (i.e. the particular bacterium in the nutritionally rich medium with no saccharide), the optical density was measured at 630 nm (OD630) at 0 h and 24 h (Thermo Scientific Multiskan Ascent). Additionally, the OD630 for combinations of bacterium/saccharides grown in a 5% CO2 environment were also measured every hour between 0 h and 9 h.
The experiment was carried out on three different days (thus providing 3 biological replicas) and on each day the experiment was carried out in quadruple (thus providing 4 technical replicas) for each combination of bacterium with saccharide and for each control. For each day and for each combination, the average (mean) of the values obtained (as detailed above) for the four technical replicas was calculated to provide a single value for each combination on each day. […]

[11] = concentrations of 5, 10, 20 and 25 μmol/ml

Compound	metabolic activity: OD 492 nm divided by OD of control (control = 1) ([1]; 24 hrs)	metabolic activity: OD 492 nm divided by OD of control (control = 1) ([1]; 48 hrs)	metabolic activity: OD 492 nm divided by OD of control (control = 1) ([2]; 24 hrs)	metabolic activity: OD 492 nm divided by OD of control (control = 1) ([2]; 48 hrs)	metabolic activity: OD 492 nm divided by OD of control (control = 1) ([3]; 24 hrs)	metabolic activity: OD 492 nm divided by OD of control (control = 1) ([3]; 48 hrs)	metabolic activity: OD 492 nm divided by OD of control (control = 1) ([4]; 24 hrs)	metabolic activity: OD 492 nm divided by OD of control (control = 1) ([4]; 48 hrs)	metabolic activity: OD 492 nm divided by OD of control (control = 1) ([5]; 24 hrs)	metabolic activity: OD 492 nm divided by OD of control (control = 1) ([5]; 48 hrs)	metabolic activity: OD 492 nm divided by OD of control (control = 1) ([6]; 24 hrs)	metabolic activity: OD 492 nm divided by OD of control (control = 1) ([6]; 48 hrs)	metabolic activity: OD 492 nm divided by OD of control (control = 1) ([7]; 24 hrs)	metabolic activity: OD 492 nm divided by OD of control (control = 1) ([7]; 48 hrs)	metabolic activity: OD 492 nm divided by OD of control (control = 1) ([8]; 24 hrs)	metabolic activity: OD 492 nm divided by OD of control (control = 1) ([8]; 48 hrs)	prebiotic effects (metabolic activity, threshold value 2) ([9]; 24 hrs)	speed of metabolism by beneficial versus pathogenic bacteria (value of 2 reached at 24 hrs) ([9]; 24 hrs)	prebiotic effects (extent of growth, threshold value 1.25) [10, 11]	also measured
OC[C@@H](O)[C@@H](O[C@H]1O[C@H](CO)[C@H](O)[C@H](O)[C@H]1O)[C@H](O)[C@@H](O)CO [D-Lactitol, 4-O-α-D-galactopyranosyl-D-glucitol]	2.4399	3.3992	0.8916	0.8237	0.9032	1.0097	0.9115	0.7913	1.0364	1.0188	1.5368	1.7842	1.0047	0.9006	1.4178	1.3908	exhibited prebiotic effects	–	–	increase in metabolic activity of A. naeslundii, in words ([1]; 24 hrs): marked increase; prebiotic effects (extent of growth, threshold value 1.25) ([10]; concentrations of 10, 20 and 25 μmol/ml): exhibited prebiotic effects
OC[C@H]1O[C@@](O)(CO)[C@@H](O[C@H]2O[C@H](CO)[C@@H](O)[C@H](O)[C@H]2O)[C@@H]1O [D-Turanose, α-D-glucopyranosyl-(1→3)-α-D-fructofuranose]	2.1636	2.7551	1.0170	1.2549	0.9893	1.0899	1.3517	1.6086	1.3458	1.5207	1.7899	2.1615	1.2969	1.3856	1.6552	1.8299	exhibited prebiotic effects	metabolized faster by the beneficial bacteria than by the pathogenic bacteria	exhibited prebiotic effects	–
O[C@H]1[C@H](O)[C@@H](O)[C@H](O)[C@@H](O)[C@H]1O [Myo-Inositol, (1R,2R,3S,4S,5R,6S)-cyclohexane-1,2,3,4,5,6-hexol]	3.8627	4.5573	1.3215	1.5191	0.5471	0.8107	0.9063	0.8999	0.9436	1.0400	0.8556	0.8202	1.0571	0.9877	0.9699	0.9399	exhibited prebiotic effects	–	–	prebiotic effects (metabolic activity, threshold value 2) ([9]; 48 hrs): exhibited prebiotic effects
CC(=O)N[C@H](C=O)[C@@H](O)[C@H](O)[C@H](O)CO [N-acetyl-D-mannosamine, 2-acetamido-2-deoxy-D-mannose]	1.4397	1.7022	1.7369	2.1360	1.1116	1.0780	1.0897	1.0886	2.9770	3.0358	1.6021	2.3739	3.4298	3.0447	1.1993	1.1453	exhibited prebiotic effects	metabolized faster by the beneficial bacteria than by the pathogenic bacteria	exhibited prebiotic effects	–
